Experimental findings from patent publication US8003801B2 (The Scripps Research Institute, priority 2005, dated 2011) are described below.

For series [1], the system named is 1A9 human ovarian cancer cell line. Put plainly: 72 hour growth-inhibition (cytotoxicity) assay, 1A9 cells. The settings on record: for IC50: Homo sapiens, 1A9; for RAEpoB (relative activity), 1A9: ratio of IC50 of EpoB to IC50 of the tested compound in the concurrent assay. It is filed as cell-based.
Series [2] deals with 1A9/PTX10, Taxol-resistant 1A9 cell line (β270 Phe→Val). Put plainly: 72 hour growth-inhibition (cytotoxicity) assay, 1A9/PTX10 cells. In kind it is cell-based, human. To be noted: for IC50: Homo sapiens, 1A9/ptx-10; for RAEpoB (relative activity), 1A9/PTX10: ratio of IC50 of EpoB to IC50 of the tested compound in the concurrent assay; for RRp (relative resistance), 1A9/PTX10: IC50 of 1A9/PTX10 divided by IC50 of the parental cell line 1A9.

The subject of series [3] is 1A9/A8, EpoA-resistant 1A9 cell line (β274 Thr→Ile). Put plainly: 72 hour growth-inhibition (cytotoxicity) assay, 1A9/A8 cells. In kind it is cell-based, human. To be noted: for IC50: Homo sapiens, 1A9; for RAEpoB (relative activity), 1A9/A8: ratio of IC50 of EpoB to IC50 of the tested compound in the concurrent assay; for RRp (relative resistance), 1A9/A8: IC50 of 1A9/A8 divided by IC50 of the parental cell line.

Series [4] concerns KB-31 human epidermoid cancer cell line. Description: 72 hour growth-inhibition (cytotoxicity) assay, KB-31 cells. In kind it is cell-based. To be noted: Homo sapiens.
In series [5] the test system is KB-8511, Taxol-resistant (Pgp-overexpression) KB cell line. To be noted: human, 72 h.
Experimental: (§1) In addition, further cytotoxicity studies were carried out using a pair of drug-sensitive parental human epidermoid carcinoma cells (KB-31) and its Taxol™-resistant Pgp-overexpressing subline (KB-5811).
In series [6] the test system is A2780/AD10, drug-resistant clone of human ovarian carcinoma A2780 overexpressing P-glycoprotein. Description: 72 hour growth-inhibition (cytotoxicity) assay, A2780/AD10 cells. To be noted: for IC50: Homo sapiens, A2780, 72 hour growth inhibition, sulforhodamine-B staining, mean of 3-5 experiments ± SEM; for RRp (relative resistance), A2780/AD10: IC50 of A2780/AD10 divided by IC50 of the parental cell line. In kind it is cell-based. On the technique in general: In SRB staining, fixed cells bind dye roughly in proportion to their protein.

Series [7] has as its system drug-sensitive and drug-resistant human cancer cell lines. Description: Cytotoxicity assays across the panel of cell lines (summary in words). In kind it is cell-based. To be noted: summary of Tables 1A-1C.
The test system of series [8] is KB-8511, Taxol-resistant (Pgp-overexpression) KB cell line. Put plainly: 72 hour growth-inhibition (cytotoxicity) assay, KB-8511 cells.
Experimental: as §1
Setting [9] is: Table 2, tested epothilone, unit from Table 1A note a, read-out: IC50, 1A9 (Table 2).
Where [10] appears, read: Table 2, tested epothilone, unit from Table 1A note a, read-out: IC50, 1A9/PTX10 (Table 2).
The mark [11] stands for this setting: Table 2, tested epothilone, unit from Table 1A note a, read-out: IC50, 1A9/A8 (Table 2).
Setting [12] is: 72 hour growth inhibition, sulforhodamine-B staining, mean of 3-5 independent experiments ± standard error of the mean, read-out: 1A9 IC50.
Setting [13] is: 72 hour growth inhibition, sulforhodamine-B staining, mean of 3-5 experiments ± SEM, read-out: 1A9/PTX10 IC50.
Where [14] appears, read: 72 hour growth inhibition, sulforhodamine-B staining, mean of 3-5 experiments ± SEM, read-out: 1A9/A8 IC50.
The mark [15] stands for this setting: KB 3-1, 72 h, read-out: KB-31 IC50.
Setting [16] is: read-out: KB-8511 IC50, 72 hour growth inhibition, methylene blue staining, mean of 3-5 experiments ± SEM.

Where two headings read alike, the source gives them in different places.

`CSc1nc(/C=C(\C)[C@@H]2C[C@@H]3O[C@]3(C)CCC[C@H](C)[C@H](O)[C@@H](C)C(=O)C(C)(C)[C@@H](O)CC(=O)O2)cs1` [Compound 3, reference compound]: the IC50 amounted to 0.17 nM in series [1] (setting [9]); 0.26 nM in series [2] (setting [10]); 1.3 nM in series [3] (setting [11]); 0.11 nM in series [4] (KB 3-1, Table 2, tested epothilone, unit from Table 1A note a, read-out: IC50, KB-31 (Table 2)); 0.07 nM in series [5]. The “RAEpoB (relative activity), 1A9” value in series [1] is 1.8. In addition, in series [2], the “RAEpoB (relative activity), 1A9/PTX10” value was 14.2. In addition, the “RAEpoB (relative activity), 1A9/A8” value in series [3] amounted to 5.0.

With `C/C(=C\c1nccn1C)[C@@H]1C[C@@H]2O[C@]2(C)CCC[C@H](C)[C@H](O)[C@@H](C)C(=O)C(C)(C)[C@@H](O)CC(=O)O1` [Compound 8], the IC50 is 95.5 ± 13.4 nM in series [1] (setting [12]); > 750 nM in series [2] (setting [13]); 242 nM in series [3] (setting [14]); 760 nM in series [6]; 69.9 ± 5.31 nM in series [4] (setting [15]); > 1000 nM in series [8] (setting [16]). For the same compound, the “RRp (relative resistance), 1A9/A8” value in series [3] was 2.5. Moreover, the “RRp (relative resistance), A2780/AD10” value in series [6] is recorded as 1.4. Further, in series [7], the “cytotoxicity across the tested cell lines, in words” value was “significantly lower activities”.

Turning to `C/C(=C\c1ncnn1C)[C@@H]1C[C@@H]2O[C@]2(C)CCC[C@H](C)[C@H](O)[C@@H](C)C(=O)C(C)(C)[C@@H](O)CC(=O)O1` [Compound 9], the IC50 was 540 nM in series [1] (setting [12]); > 750 nM in series [2] (setting [13]); 627 nM in series [3] (setting [14]); > 750 nM in series [6]; 382 ± 49.4 nM in series [4] (setting [15]); > 1000 nM in series [8] (setting [16]). Besides, the “RRp (relative resistance), 1A9/A8” value in series [3] is reported as 1.2. The “cytotoxicity across the tested cell lines, in words” value in series [7] is on record as “significantly lower activities”.

`C/C(=C\c1ccn(-c2ccccc2)n1)[C@@H]1C[C@@H]2O[C@]2(C)CCC[C@H](C)[C@H](O)[C@@H](C)C(=O)C(C)(C)[C@@H](O)CC(=O)O1` [Compound 15]: the IC50 in series [1] (setting [12]) stood at 5.45 ± 3.7 nM; in series [2] (setting [13]) it was 25.8 ± 19.8 nM; in series [3] (setting [14]), 4.8 ± 3.6 nM; in series [6], 6.4 nM; in series [4] (setting [15]) it was 2.27 ± 0.16 nM; in series [8] (setting [16]), 1.62 ± 0.14 nM. Further, in series [2], the “RRp (relative resistance), 1A9/PTX10” value was determined as 4.7. Further, the “RRp (relative resistance), 1A9/A8” value in series [3] was found to be 0.9. Besides, the “RRp (relative resistance), A2780/AD10” value in series [6] was determined as 107. In series [7], the “cytotoxicity across the tested cell lines, in words” value is reported as “somewhat less active”.

For `C/C(=C\c1nc2ccccc2s1)[C@@H]1C[C@@H]2O[C@]2(C)CCC[C@H](C)[C@H](O)[C@@H](C)C(=O)C(C)(C)[C@@H](O)CC(=O)O1` [Compound 7], the IC50 in series [1] (setting [12]) was found to be 0.19 ± 0.1 nM; in series [1] (setting [9]) it was 0.19 nM; in series [2] (setting [13]) it was 2.6 ± 2.5 nM; in series [2] (setting [10]) it was 2.6 nM; in series [3] (setting [14]), 0.7 ± 0.4 nM; in series [3] (setting [11]) it was 0.7 nM. In addition, the IC50 in series [6] is 707 nM; in series [4] (setting [15]), 0.21 ± 0.07 nM; in series [4] (KB 3-1, read-out: IC50, KB-31 (Table 2)), 0.21 nM; in series [8] (read-out: IC50, KB-5811 (Table 2), Table 2, tested epothilone, cell line KB-5811, unit from Table 1A note a), 0.08 nM; in series [8] (setting [16]), 0.08 ± 0.04 nM. Also, the “RAEpoB (relative activity), 1A9” value in series [1] is listed as 5.2. For the same compound, the “RRp (relative resistance), 1A9/PTX10” value in series [2] turned out to be 13.7. Moreover, the “RAEpoB (relative activity), 1A9/PTX10” value in series [2] is reported as 3.0. Also, the “RRp (relative resistance), 1A9/A8” value in series [3] came out at 3.7. Moreover, the “RAEpoB (relative activity), 1A9/A8” value in series [3] came out at 14.3. In series [6], the “RRp (relative resistance), A2780/AD10” value is reported as 7.4. The “cytotoxicity across the tested cell lines, in words” value in series [7] is recorded as “excellent cytotoxicity across the range of cell lines, being more potent than EpoB”.
